# Test results: patent US9289421B2, “Methods and compositions for reducing serum levels of immunoglobulin E (IgE)” (priority 2011, dated 2016)
# “Also recorded” adds a separate entry of the source.
# Key:
# [1] = test system: serum levels of total IgE; test: Total serum IgE by ELISA, OVA/ALUM sensitization and boost in BALB/c mice; type: in vivo; settings: for IgE levels: THC- or LPI-pretreated B/c mice, OVA/Alum
# Description: (§1) In in vivo IgE-induction models using OVA/Alum or KLH/Ribi, the role of GPR55, in cannabinoid effects on antibody production has been investigated. BALB/c (B/c), C57BL/6 (B6), or B6 CB2 deficient (CB2^−/−) mice were pretreated with THC or L-α-lysophosphatidylinositol (LPI) prior to injections with OVA/Alum or KLH/Ribi, followed by boosting with same antigens. The mice were then bled on various days after boosting and total serum IgE was determined.
# Mice were pretreated with SR2/Gp1a, Gp1a, or not pretreated, and 18 hrs later were sensitized with OVA/ALUM followed by a boost with same antigen. The sera were collected 6 days after the antigen boost injection and ELISAs were performed for IgE. Data represent sera from 4-8 mice/group+/−SEM. *=p≦0.05 from Normal; #=p≦0.05 from OVA/ALUM or SR2/OVA/ALUM.
# [2] = test system: serum levels of total IgE; test: Total serum IgE by ELISA, OVA/ALUM sensitization and boost in C57BL/6 and CB2-/- mice; type: in vivo, C57BL/6 (B6) and CB2-/- mice; settings: for serum levels of total IgE: THC pretreatment
# Description: FIG. 4 is a graph illustrating that serum levels of total IgE were increased with THC pretreatment over C57BL/6 (B6) mice; CB2 deficient mice (CB2^−/−) over B6; and THC pretreatment CB2^−/− over B6 and THC/B6. SR141716A (SR1; CB1 antagonist) pretreatment of CB2^−/− had little effect on total IgE levels. The mice were treated OVA/ALUM following a boost of same antigen. The sera were collected at Day 5-6 after the boost and ELISAs were performed. Data represent serum from individual mice (4-9 mice/group+/−SEM). *=p≦0.05 from Normal; #=p≦0.05 from OVA/ALUM; ##=p<0.05 from THC/OVA/ALUM
# as §1
# total serum IgE [3] = test: Total serum IgE, KLH/Ribi IgE-induction model in BALB/c mice; type: in vivo; settings: THC-treated B/c mice
# Description: as §1
# total serum IgE [4] = test: Total serum IgE, KLH/RIBI IgE-induction model in B6 and CB2-/- mice; type: in vivo, C57BL/6 (B6) and CB2-/- mice; settings: compared with OVA/ALUM
# Description: as §1
compound,measurement,setting,value
"Cc1ccc2c(c1)Cc1c(C(=O)NN3CCCCC3)nn(-c3ccc(Cl)cc3Cl)c1-2 [Gp1a, N-(Piperidin-1-yl)-1-(2,4-dichlorophenyl)-1,4-dihydro-6-methylindeno[1,2-c]pyrazole-3-carboxamide]",serum levels of total IgE,"[1]; BALB/c mice, pretreated 18 hrs before OVA/ALUM, sera 6 days after boost",attenuates; also recorded: caused a decrease in IgE
Cc1c(C(=O)NN2CCCCC2)nn(-c2ccc(Cl)cc2Cl)c1-c1ccc(Cl)cc1 [SR141716A],IgE response,"[2]; B6 and CB2-/- mice, CB1 antagonist given prior to THC dosing",only slightly elevated
same,total IgE levels,"[2]; CB2-/- mice, SR1 pretreatment, OVA/ALUM",little effect
"CCCCCc1cc(O)c2c(c1)OC(C)(C)[C@@H]1CCC(C)=C[C@@H]21 [THC, Δ^9-tetrahydrocannabinol]",IgE levels,[1],elevated
same,serum levels of total IgE,"[2]; C57BL/6 (B6) mice, OVA/ALUM, sera Day 5-6 after boost",increased
same,serum levels of total IgE,"[2]; CB2-/- mice, OVA/ALUM, vs B6 and THC/B6",increased; also recorded: augmented this effect
same,IgE levels,total serum IgE [3],elevated
same,IgE levels,total serum IgE [4],increased IgE levels greater than OVA/ALUM
"Cc1ccc(Cn2nc(C(=O)N[C@@H]3C(C)(C)[C@@H]4CC[C@@]3(C)C4)cc2-c2ccc(Cl)c(C)c2)cc1 [SR144528, 5-(4-chloro-3-methylphenyl)-1-[(4-methylphenyl)methyl]-N-[(1S,2S,4R)-1,3,3-trimethylbicyclo[2.2.1]hept-2-yl]-1H-pyrazole-3-carboxamide]",effect on the Gp1a attenuation of serum total IgE,"[1]; BALB/c mice, co-treatment with Gp1a (SR2/Gp1a), OVA/ALUM",reversed; also recorded: reverses the Gp1a effect
L-α-lysophosphatidylinositol [LPI],IgE levels,[1],enhanced
